Patent US20140213538A1, “LYSOPHOSPHATIDIC ACID RECEPTOR ANTAGONISTS” (InterMune, Inc., priority 2013, published 2014)

Experiments:
Assay type in all cases: cell-based
[1] = target: T1, LPA1 (Homo sapiens, UniProt Q92633); assay: Ca Flux LPA1 assay; set-up: the full-length cDNA for human LPA1 is obtained by PCR of the reverse transcription reaction; expressed in transfected cells
[2] = target: T1, LPA1; assay: LPA1 Migration Assay (Oris); set-up: host or cells: primary fibroblasts (lung, dermal), HFL-1, 3T3 and CHO cells expressing LPA1R; details: read-out: Cell Migration EC50
In short: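 Antagonist inhibition was derived by 4-parameter logistic fitting of migrated-cell counts against compound concentration. Dye-loaded, 12-24 h serum-starved fibroblasts, HFL-1, 3T3 or CHO cells expressing LPA1R moved into an Oris detection zone in response to LPA or serum, then were fixed and counted on a high-content reader.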

[3] = target: T2, LPA/S1P GPCR of interest (Homo sapiens, UniProt Q92633); assay: Beta-Arrestin based assay (PathHunter)
T2 construct: host or cells: CHO
In short: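 EA Parental CHO cells (DiscoverX) were transfected with FuGENE (Roche) using CMV promoter-driven DNA constructs encoding the LPA/S1P GPCR of interest fused to a ProLink tag. Beta-arrestin recruitment in agonist mode was assessed 24-48 hrs later with PathHunter kits. Tests ran in quadruplicate in white 384 well plates, and end point luminescence was fit to a 4 parameter logistic function.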

T1 sequence (Q92633 whole entry): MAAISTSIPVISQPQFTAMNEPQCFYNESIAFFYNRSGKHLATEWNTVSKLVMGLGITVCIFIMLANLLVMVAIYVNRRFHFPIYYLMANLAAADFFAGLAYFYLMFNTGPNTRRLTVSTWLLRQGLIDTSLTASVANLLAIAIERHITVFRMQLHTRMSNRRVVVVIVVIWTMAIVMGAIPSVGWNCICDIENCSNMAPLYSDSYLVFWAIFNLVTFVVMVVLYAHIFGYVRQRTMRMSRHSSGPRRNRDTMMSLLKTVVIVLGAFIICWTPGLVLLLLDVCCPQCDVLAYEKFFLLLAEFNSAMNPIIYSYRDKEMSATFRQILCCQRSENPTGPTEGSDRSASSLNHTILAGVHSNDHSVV
T2 sequence (Q92633 whole entry): as above

C[C@@H](OC(=O)Nc1c(-c2cc3sc(C#CC4(C(=O)O)CC4)cc3s2)cnn1C)c1ccccc1 [IT126]
IC50 [1]: < 0.05 µM
EC50 [2]: 0.05 to 0.5 µM
EC50 [3]: < 0.05 µM

CCn1ncc(-c2ccc(-c3cc(F)c(Oc4ncccc4C(=O)O)c(F)c3)cc2)c1NC(=O)O[C@H](C)c1ccccc1 [IT489]
IC50 [1]: 0.05 to 0.5 µM
EC50 [2]: < 0.05 µM
EC50 [3]: < 0.05 µM

Cc1noc(-c2ccc(-c3ccc(Oc4ccncc4C(=O)O)cc3)cc2)c1NC(=O)O[C@H](C)c1ccccc1 [IT227]
IC50 [1]: < 0.05 µM
EC50 [2]: < 0.05 µM
EC50 [3]: < 0.05 µM

Cc1noc(-c2ccc(-c3ccc(C4(C(=O)O)CC4(F)F)cc3)cc2)c1NC(=O)O[C@H](C)c1ccccc1 (stereo partly drawn) [IT172]
IC50 [1]: 0.05 to 0.5 µM
EC50 [2]: < 0.05 µM
EC50 [3]: < 0.05 µM

C[C@@H](OC(=O)Nc1c(-c2cc(F)c(-c3cc4sc(C5(C(=O)O)CC5)cc4s3)cc2F)cnn1C)c1ccccc1 [IT121]
IC50 [1]: > 0.5 µM
EC50 [2]: < 0.05 µM
EC50 [3]: < 0.05 µM

Cn1ncc(C#Cc2cc3sc(C4(C(=O)O)CC4)cc3s2)c1NC(=O)O[C@@H](c1ccccc1)C(F)(F)F [IT114]
IC50 [1]: 0.05 to 0.5 µM
EC50 [2]: < 0.05 µM
EC50 [3]: < 0.05 µM

Cc1noc(-c2ccc(-c3cc(F)c(C4(C(=O)O)CC4)c(F)c3)cc2)c1NC(=O)O[C@H](C)c1ccccc1 [IT234]
IC50 [1]: < 0.05 µM
EC50 [2]: < 0.05 µM
EC50 [3]: < 0.05 µM

C[C@@H](OC(=O)Nc1c(-c2ccc(-c3cc(F)c(Oc4ccncc4C(=O)O)c(F)c3)cc2)cnn1C)c1ccccc1 [IT438]
IC50 [1]: 0.05 to 0.5 µM
EC50 [2]: 0.05 to 0.5 µM
EC50 [3]: < 0.05 µM

Cc1noc(-c2ccc(NC(=O)c3coc(C4(C(=O)O)CC4)c3)cc2)c1NC(=O)O[C@H](C)c1ccccc1 [IT224]
IC50 [1]: < 0.05 µM
EC50 [2]: < 0.05 µM
EC50 [3]: < 0.05 µM

Cc1noc(-c2ccc(-c3ccc(Oc4c(F)cccc4C(=O)O)cc3)cc2)c1NC(=O)O[C@H](C)c1ccccc1 [IT375]
IC50 [1]: 0.05 to 0.5 µM
EC50 [2]: 0.05 to 0.5 µM
EC50 [3]: < 0.05 µM

C[C@@H](OC(=O)Nc1c(-c2ccc(-c3cc(F)c(Oc4ccccc4C(=O)O)c(F)c3)cc2)cnn1C)c1ccccc1 [IT425]
IC50 [1]: < 0.05 µM
EC50 [2]: < 0.05 µM
EC50 [3]: < 0.05 µM

Cc1noc(-c2ccc(-c3cc(F)c(Oc4ccncc4C(=O)O)c(F)c3)cc2)c1NC(=O)O[C@H](C)c1ccccc1 [IT300]
IC50 [1]: < 0.05 µM
EC50 [2]: < 0.05 µM
EC50 [3]: < 0.05 µM

C[C@@H](OC(=O)Nc1c(-c2ccc(-c3ccc(C4(C(=O)O)CC4)cc3)cc2)oc2ccccc12)c1ccccc1 [IT496]
IC50 [1]: > 0.5 µM
EC50 [2]: < 0.05 µM
EC50 [3]: < 0.05 µM

Cc1noc(-c2ccc(-c3ccc(Oc4ccncc4C(=O)O)c(F)c3)cc2)c1NC(=O)O[C@H](C)c1ccccc1 [IT423]
IC50 [1]: < 0.05 µM
EC50 [2]: 0.05 to 0.5 µM
EC50 [3]: < 0.05 µM

Cc1noc(-c2ccc(-c3ccc(OC(C)(C)C(=O)O)cc3)cc2)c1NC(=O)O[C@H](C)c1ccccc1 [IT226]
IC50 [1]: < 0.05 µM
EC50 [2]: < 0.05 µM
EC50 [3]: < 0.05 µM

C[C@@H](OC(=O)Nc1ocnc1C#Cc1cc2sc(C3(C(=O)O)CC3)cc2s1)c1ccccc1 [IT125]
IC50 [1]: < 0.05 µM
EC50 [2]: 0.05 to 0.5 µM
EC50 [3]: > 0.5 µM

Cc1noc(-c2ccc(-c3ccc(S(C)(=O)=O)cc3)cc2)c1NC(=O)O[C@H](C)c1ccccc1 [IT124]
IC50 [1]: > 0.5 µM
EC50 [2]: 0.05 to 0.5 µM
EC50 [3]: > 0.5 µM

C[C@@H](OC(=O)Nc1c(-c2ccc(-c3ccc(Oc4ccccc4C(=O)O)cc3)cc2)oc2ccccc12)c1ccccc1 (single isomer, unassigned) [IT495]
IC50 [1]: > 0.5 µM
EC50 [2]: 0.05 to 0.5 µM
EC50 [3]: < 0.05 µM

C[C@@H](OC(=O)Nc1c(-c2ccc(-c3cc(F)c(Oc4ncccc4C(=O)O)c(F)c3)cc2)nnn1C)c1ccccc1 [IT306]
IC50 [1]: < 0.05 µM
EC50 [2]: < 0.05 µM
EC50 [3]: < 0.05 µM

C[C@@H](OC(=O)Nc1c(-c2ccc(-c3ccc(C4(C(=O)OC5OC(C(=O)O)C(O)C(O)C5O)CC4)cc3)cc2)cnn1C)c1ccccc1 (stereo partly drawn) [IT105]
IC50 [1]: 0.05 to 0.5 µM
EC50 [2]: 0.05 to 0.5 µM
EC50 [3]: 0.05 to 0.5 µM

C[C@@H](OC(=O)Nc1c(-c2ccc(-c3ccc(C4(C(=O)O)CC4)s3)cc2)nnn1C)c1ccccc1 [IT236]
IC50 [1]: < 0.05 µM
EC50 [2]: 0.05 to 0.5 µM
EC50 [3]: < 0.05 µM

Cc1noc(-c2ccc(-c3cc(F)c(OC4(C(=O)O)CC4)c(F)c3)cc2)c1NC(=O)O[C@H](C)c1ccccc1 [IT304]
IC50 [1]: < 0.05 µM
EC50 [2]: 0.05 to 0.5 µM
EC50 [3]: < 0.05 µM

C[C@@H](OC(=O)Nc1c(-c2ccc(-c3ccc(Oc4ccccc4C(=O)O)cc3)cc2)cnn1C)c1ccccc1 [IT198]
IC50 [1]: < 0.05 µM
EC50 [2]: 0.05 to 0.5 µM
EC50 [3]: < 0.05 µM

C[C@@H](OC(=O)Nc1c(-c2ccc(-c3ccc(Oc4ccccc4C(=O)O)c(F)c3)cc2)cnn1C)c1ccccc1 [IT446]
IC50 [1]: < 0.05 µM
EC50 [2]: < 0.05 µM
EC50 [3]: < 0.05 µM

Cc1nsc(-c2ccc(-c3cc(F)c(Oc4ncccc4C(=O)O)c(F)c3)cc2)c1NC(=O)O[C@H](C)c1ccccc1 [IT451]
IC50 [1]: 0.05 to 0.5 µM
EC50 [2]: < 0.05 µM
EC50 [3]: < 0.05 µM

C[C@@H](OC(=O)Nc1c(-c2cc3sc(-c4cc(F)c(C5(C(=O)O)CC5)c(F)c4)cc3s2)cnn1C)c1ccccc1 [IT261]
IC50 [1]: > 0.5 µM
EC50 [2]: 0.05 to 0.5 µM
EC50 [3]: < 0.05 µM

C[C@@H](OC(=O)Nc1c(C#Cc2cc3sc(C4(c5nn[nH]n5)CC4)cc3s2)cnn1C)c1ccccc1 [IT104]
IC50 [1]: < 0.05 µM
EC50 [2]: 0.05 to 0.5 µM
EC50 [3]: < 0.05 µM

Cc1noc(-c2ccc(-c3cc(F)c(Oc4cccnc4C(=O)O)c(F)c3)cc2)c1NC(=O)O[C@H](C)c1ccccc1 [IT435]
IC50 [1]: < 0.05 µM
EC50 [2]: < 0.05 µM
EC50 [3]: < 0.05 µM

Cc1noc(-c2cc3sc(C#CC4(C(=O)O)CC4)cc3s2)c1NC(=O)O[C@H](C)c1ccccc1 [IT117]
IC50 [1]: < 0.05 µM
EC50 [2]: 0.05 to 0.5 µM
EC50 [3]: < 0.05 µM

C[C@@H](OC(=O)Nc1c(-c2ccc(-c3ccc(Oc4ccccc4C(=O)O)cc3)cc2)nnn1C)c1ccccc1 [IT309]
IC50 [1]: < 0.05 µM
EC50 [2]: < 0.05 µM
EC50 [3]: < 0.05 µM

Cc1noc(-c2ccc(-c3ccc(Oc4cccnc4C(=O)O)c(F)c3)cc2)c1NC(=O)O[C@H](C)c1ccccc1 [IT424]
IC50 [1]: < 0.05 µM
EC50 [2]: < 0.05 µM
EC50 [3]: < 0.05 µM

Cc1c(C2(C(=O)O)CC2)sc2cc(C#Cc3cnn(C)c3NC(=O)O[C@H](C)c3ccccc3)sc12 [IT107]
IC50 [1]: < 0.05 µM
EC50 [2]: 0.05 to 0.5 µM
EC50 [3]: < 0.05 µM

C[C@@H](OC(=O)Nc1sncc1C#Cc1cc2sc(C3(C(=O)O)CC3)cc2s1)c1ccccc1 [IT108]
IC50 [1]: > 0.5 µM
EC50 [2]: > 0.5 µM
EC50 [3]: > 0.5 µM

Cc1noc(-c2ccc(-c3cc(F)c(Oc4ncccc4C(=O)O)c(F)c3)cc2)c1NC(=O)O[C@H](C)c1ccccc1 [IT258]
IC50 [1]: < 0.05 µM
EC50 [2]: < 0.05 µM
EC50 [3]: < 0.05 µM

Cc1nsc(-c2cc3sc(-c4ccc(C5(C(=O)O)CC5)cc4)cc3s2)c1NC(=O)O[C@H](C)c1ccccc1 [IT120]
IC50 [1]: > 0.5 µM
EC50 [2]: 0.05 to 0.5 µM
EC50 [3]: < 0.05 µM

C[C@@H](OC(=O)Nc1ccncc1C#Cc1cc2sc(C3(C(=O)O)CC3)cc2s1)c1ccccc1 [IT106]
IC50 [1]: < 0.05 µM
EC50 [2]: > 0.5 µM
EC50 [3]: 0.05 to 0.5 µM

Cc1nsc(-c2ccc(-c3cc(F)c(Oc4ccccc4C(=O)O)c(F)c3)cc2)c1NC(=O)O[C@H](C)c1ccccc1 [IT448]
IC50 [1]: 0.05 to 0.5 µM
EC50 [2]: 0.05 to 0.5 µM
EC50 [3]: < 0.05 µM

Cc1noc(-c2ccc(-c3cc(F)c(Oc4nc5ccccc5cc4C(=O)O)c(F)c3)cc2)c1NC(=O)O[C@H](C)c1ccccc1 [IT481]
IC50 [1]: > 0.5 µM
EC50 [2]: < 0.05 µM
EC50 [3]: < 0.05 µM

Cc1noc(-c2ccc(-c3ccc(Oc4c(F)cccc4C(=O)O)c(F)c3)cc2)c1NC(=O)O[C@H](C)c1ccccc1 [IT374]
IC50 [1]: 0.05 to 0.5 µM
EC50 [2]: 0.05 to 0.5 µM
EC50 [3]: < 0.05 µM

Cc1noc(-c2cc(F)c(-c3cc(F)c(Oc4ncccc4C(=O)O)c(F)c3)cc2F)c1NC(=O)O[C@H](C)c1ccccc1 [IT474]
IC50 [1]: < 0.05 µM
EC50 [2]: < 0.05 µM
EC50 [3]: < 0.05 µM
